{"source": "ChEMBL document CHEMBL1201862", "about": "“PubChem BioAssay data set” (2004)", "key": {"Streptokinase A": {"target": "T1, Streptokinase A (Streptococcus pyogenes serotype M1, UniProt P10520)", "T1 sequence (P10520 whole entry)": "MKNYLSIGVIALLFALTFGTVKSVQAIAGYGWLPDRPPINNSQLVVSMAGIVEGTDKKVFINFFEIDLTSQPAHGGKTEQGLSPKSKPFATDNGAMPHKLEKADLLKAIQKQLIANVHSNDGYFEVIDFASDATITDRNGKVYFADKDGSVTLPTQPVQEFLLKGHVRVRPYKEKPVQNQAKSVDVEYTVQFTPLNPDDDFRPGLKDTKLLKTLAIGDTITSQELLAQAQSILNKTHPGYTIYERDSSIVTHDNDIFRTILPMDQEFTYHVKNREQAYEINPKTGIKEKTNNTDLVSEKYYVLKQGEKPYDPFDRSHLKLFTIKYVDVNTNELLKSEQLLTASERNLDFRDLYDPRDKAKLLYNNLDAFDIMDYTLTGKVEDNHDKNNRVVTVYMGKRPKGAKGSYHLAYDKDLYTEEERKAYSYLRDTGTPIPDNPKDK", "assay": "viability-normalized secreted streptokinase activity reduction – plasminogen activation absorbance, OD405, dose response (AID 1914)", "assay_type": "functional, Streptococcus pyogenes M1 GAS"}, "Cytochrome P450 3A4": {"target": "Cytochrome P450 3A4 (Homo sapiens, UniProt P08684)"}, "INS1": {"system": "INS1", "assay": "INS-1E survival protection against cytokine death – cell-based, luminescence, retest, dose response (AID 449756);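 further: cell death triggered by IL-1 beta plus TNF-alpha plus IFN-gamma mixture; protective hits raise ATP signal compared with cytokine alone wells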", "assay_type": "functional", "conditions": "Rattus norvegicus"}, "BJ [1]": {"system": "BJ", "assay": "cells", "assay_type": "functional, cell-based", "conditions": "Homo sapiens"}, "BJ [2]": {"system": "BJ", "assay": "BJ-TERT-LT-ST fibroblast viability loss – cell-based, RAS-independent, luminescence, dose response (AID 1935);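 further: BJ fibroblasts immortalized with TERT plus LT and ST oncogenes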", "assay_type": "functional", "conditions": "Homo sapiens"}, "[3]": {"assay": "DRD fibroblast viability loss – cell-based, non-viral oncogenic, luminescence, dose response (AID 1934)", "assay_type": "functional", "conditions": "Homo sapiens"}, "Cytochrome P450 2C19": {"target": "Cytochrome P450 2C19 (Homo sapiens, UniProt P33261)", "assay": "Cytochrome panel assay with activity outcomes. Panel member name: p450-cyp2c19 Compounds with AC50 equal or less than 10 uM are considered active", "assay_type": "functional", "conditions": "read-out: AC50"}, "Cytochrome P450 1A2": {"target": "T2, Cytochrome P450 1A2 (Homo sapiens, UniProt P05177)", "T2 sequence (P05177 whole entry)": "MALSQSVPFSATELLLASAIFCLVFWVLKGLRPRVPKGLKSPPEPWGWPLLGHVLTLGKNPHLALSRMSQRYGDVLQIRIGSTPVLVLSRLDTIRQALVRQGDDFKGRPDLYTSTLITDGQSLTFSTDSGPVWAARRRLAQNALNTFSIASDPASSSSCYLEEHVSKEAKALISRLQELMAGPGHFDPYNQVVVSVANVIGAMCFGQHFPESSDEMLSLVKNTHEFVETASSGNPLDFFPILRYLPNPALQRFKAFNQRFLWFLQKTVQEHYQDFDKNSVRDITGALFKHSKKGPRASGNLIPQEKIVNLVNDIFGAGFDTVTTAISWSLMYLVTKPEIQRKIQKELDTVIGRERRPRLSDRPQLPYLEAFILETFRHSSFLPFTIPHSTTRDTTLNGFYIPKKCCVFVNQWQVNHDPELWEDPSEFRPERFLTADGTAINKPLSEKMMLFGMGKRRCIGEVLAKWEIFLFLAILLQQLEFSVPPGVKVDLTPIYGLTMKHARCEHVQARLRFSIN"}, "[4]": {"assay": "Counterscreen for AddAB inhibitors: absorbance-based bacterial cell-based high throughput dose response assay for inhibitors of bacterial viability. [Related pubchem assays (depositor defined):AID435030, AID449728, AID449731, AID488942, AID488955, AID488956]", "assay_type": "functional"}, "[5]": {"target": "Sphingosine 1-phosphate receptor 2 (Homo sapiens, UniProt O95136)", "sequence (O95136 whole entry)": "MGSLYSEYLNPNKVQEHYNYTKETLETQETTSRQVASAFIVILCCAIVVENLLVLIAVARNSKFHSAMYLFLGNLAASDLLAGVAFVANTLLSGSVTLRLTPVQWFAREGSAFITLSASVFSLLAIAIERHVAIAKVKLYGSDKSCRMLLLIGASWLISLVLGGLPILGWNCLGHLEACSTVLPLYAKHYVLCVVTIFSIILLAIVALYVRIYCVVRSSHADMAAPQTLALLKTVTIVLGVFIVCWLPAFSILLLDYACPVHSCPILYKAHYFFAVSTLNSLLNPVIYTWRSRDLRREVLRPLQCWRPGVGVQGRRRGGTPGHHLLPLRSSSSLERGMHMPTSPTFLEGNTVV", "assay": "Dose Response Cell Based Assay for Antagonists of the S1P2 Receptor. [Related pubchem assays: 856, 736 ]", "assay_type": "functional"}, "[6]": {"system": "Streptococcus sp. 'group A'", "assay": "Streptococcus pyogenes SK(-)GAS viability under kanamycin – luminescence, BacTiterGlo, confirmation, counter-screen for streptokinase expression inhibitor project, dose response (AID 1900)", "assay_type": "functional, organism-based"}, "BJ [7]": {"system": "BJ", "assay": "BJ-TERT fibroblast viability loss – cell-based, RAS-independent, luminescence, dose response (AID 1933)", "assay_type": "functional", "conditions": "Homo sapiens"}, "Exodeoxyribonuclease V": {"target": "Exodeoxyribonuclease V (Escherichia coli (strain K12), UniProt P04993+P07648+P08394)", "assay": "RecBCD inhibition via phage-restricted bacterial growth – absorbance, V66 E. coli, mutant T4 phage, counter-screen for AddAB inhibitor project, dose response (AID 492957)", "assay_type": "functional, cell-based, Escherichia coli str. K-12 substr. MG1655"}, "Bcl-2-like protein 10": {"target": "Bcl-2-like protein 10 (Homo sapiens, UniProt Q9HD36)", "sequence (Q9HD36 whole entry)": "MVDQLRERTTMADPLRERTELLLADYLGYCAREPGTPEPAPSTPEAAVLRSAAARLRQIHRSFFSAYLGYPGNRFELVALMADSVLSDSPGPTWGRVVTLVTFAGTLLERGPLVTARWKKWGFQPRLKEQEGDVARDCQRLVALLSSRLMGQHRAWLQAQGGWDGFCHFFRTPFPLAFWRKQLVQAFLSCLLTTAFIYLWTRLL", "assay": "Bcl-B/TR3 peptide binding disruption – biochemical, fluorescence polarization, FITC-TR3 peptide, selectivity assay for Bfl-1 inhibitor project, primary screen (AID 748);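 further: fluorescence polarization from a fluorescein-labelled TR3 peptide binding purified Bcl-B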"}, "Streptococcus": {"system": "Streptococcus", "assay": "GAS UMAA2166 growth inhibition – luminescence, BacTiterGlo, counter-screen for streptokinase expression inhibitor project, dose response (AID 1915)", "assay_type": "functional, organism-based"}, "[8]": {"target": "Tyrosine-protein phosphatase non-receptor type 12 (Homo sapiens, UniProt Q05209)", "sequence (Q05209 whole entry)": "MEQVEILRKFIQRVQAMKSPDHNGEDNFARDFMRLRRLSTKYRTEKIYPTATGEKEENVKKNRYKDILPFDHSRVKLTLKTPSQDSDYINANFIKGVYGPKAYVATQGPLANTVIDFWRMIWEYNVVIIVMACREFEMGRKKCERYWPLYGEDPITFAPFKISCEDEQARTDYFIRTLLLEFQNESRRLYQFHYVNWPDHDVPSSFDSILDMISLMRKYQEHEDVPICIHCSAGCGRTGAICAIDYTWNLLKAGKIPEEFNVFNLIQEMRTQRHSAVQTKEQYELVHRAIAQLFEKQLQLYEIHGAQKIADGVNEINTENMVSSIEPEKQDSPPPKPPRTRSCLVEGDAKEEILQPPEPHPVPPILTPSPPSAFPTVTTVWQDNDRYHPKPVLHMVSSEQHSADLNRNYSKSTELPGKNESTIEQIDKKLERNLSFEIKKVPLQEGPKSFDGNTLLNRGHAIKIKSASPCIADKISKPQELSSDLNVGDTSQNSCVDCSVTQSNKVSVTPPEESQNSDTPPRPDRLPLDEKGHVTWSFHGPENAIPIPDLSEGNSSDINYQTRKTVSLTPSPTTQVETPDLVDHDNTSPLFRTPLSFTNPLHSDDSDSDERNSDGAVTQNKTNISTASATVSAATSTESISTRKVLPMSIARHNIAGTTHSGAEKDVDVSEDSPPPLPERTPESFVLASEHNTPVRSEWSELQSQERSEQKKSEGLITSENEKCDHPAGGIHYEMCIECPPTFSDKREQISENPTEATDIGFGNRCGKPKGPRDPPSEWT", "assay": "SAR Selectivity Analysis of small molecule inhibitors of PEST using pCAP in a fluorescence assay. [Related pubchem assays (depositor defined):AID1779, AID1784, AID2135]", "assay_type": "functional"}, "[9]": {"target": "T3, G-protein coupled receptor 35 (Homo sapiens, UniProt Q9HC97)", "T3 sequence (Q9HC97 whole entry)": "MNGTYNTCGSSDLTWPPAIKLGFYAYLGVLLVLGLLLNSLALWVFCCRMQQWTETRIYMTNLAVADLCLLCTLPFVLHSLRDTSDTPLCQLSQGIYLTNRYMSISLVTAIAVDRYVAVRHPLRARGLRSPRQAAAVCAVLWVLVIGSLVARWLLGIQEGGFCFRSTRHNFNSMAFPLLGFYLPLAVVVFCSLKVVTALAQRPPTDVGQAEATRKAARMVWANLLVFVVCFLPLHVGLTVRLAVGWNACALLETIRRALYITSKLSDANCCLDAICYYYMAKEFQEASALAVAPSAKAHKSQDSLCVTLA", "assay": "inhibition of zaprinast-stimulated GPR35 beta-arrestin translocation – imaging, U2OS, beta-arrestin-GFP, zaprinast agonist, primary screen (AID 2058);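 further: antagonist potency meaning inhibition of agonist-induced arrestin redistribution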", "assay_type": "functional"}, "[10]": {"assay": "luciferase reporter signal suppression in cells – H4 neuroglioma cells, luminescence, dose response (AID 1990)", "assay_type": "functional, cell-based"}, "[11]": {"target": "T4, Tyrosine-protein phosphatase non-receptor type 22 (Homo sapiens, UniProt Q9Y2R2)", "T4 sequence (Q9Y2R2 whole entry)": "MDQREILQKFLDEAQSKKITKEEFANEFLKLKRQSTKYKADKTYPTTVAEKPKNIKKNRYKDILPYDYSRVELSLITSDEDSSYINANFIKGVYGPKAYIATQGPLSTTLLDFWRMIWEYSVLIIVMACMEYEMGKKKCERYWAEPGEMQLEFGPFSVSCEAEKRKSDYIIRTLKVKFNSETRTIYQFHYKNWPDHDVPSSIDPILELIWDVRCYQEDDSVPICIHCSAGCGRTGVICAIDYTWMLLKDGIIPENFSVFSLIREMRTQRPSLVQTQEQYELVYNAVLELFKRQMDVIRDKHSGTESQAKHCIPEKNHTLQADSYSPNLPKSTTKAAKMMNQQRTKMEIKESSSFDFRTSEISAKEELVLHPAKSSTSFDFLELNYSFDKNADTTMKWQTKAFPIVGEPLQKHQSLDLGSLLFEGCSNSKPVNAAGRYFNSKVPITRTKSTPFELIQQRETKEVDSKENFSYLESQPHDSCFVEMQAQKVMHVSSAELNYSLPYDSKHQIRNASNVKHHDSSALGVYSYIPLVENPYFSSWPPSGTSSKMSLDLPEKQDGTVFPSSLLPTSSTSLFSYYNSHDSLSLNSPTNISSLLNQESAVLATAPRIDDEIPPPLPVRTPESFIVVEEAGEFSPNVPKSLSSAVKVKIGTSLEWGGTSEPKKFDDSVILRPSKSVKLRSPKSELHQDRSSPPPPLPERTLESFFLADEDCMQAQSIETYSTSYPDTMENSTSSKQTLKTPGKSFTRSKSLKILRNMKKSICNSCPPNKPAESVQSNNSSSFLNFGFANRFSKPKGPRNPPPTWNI", "assay": "SAR LYP1 Fluorescent Assay using OMFP substrate for In Vitro dose response studies - Set 3. [Related pubchem assays (depositor defined):AID1779, AID1784, AID2140, AID2686]", "assay_type": "functional"}, "[12]": {"target": "G-protein coupled receptor 55 (Homo sapiens, UniProt Q9Y2T6)", "sequence (Q9Y2T6 whole entry)": "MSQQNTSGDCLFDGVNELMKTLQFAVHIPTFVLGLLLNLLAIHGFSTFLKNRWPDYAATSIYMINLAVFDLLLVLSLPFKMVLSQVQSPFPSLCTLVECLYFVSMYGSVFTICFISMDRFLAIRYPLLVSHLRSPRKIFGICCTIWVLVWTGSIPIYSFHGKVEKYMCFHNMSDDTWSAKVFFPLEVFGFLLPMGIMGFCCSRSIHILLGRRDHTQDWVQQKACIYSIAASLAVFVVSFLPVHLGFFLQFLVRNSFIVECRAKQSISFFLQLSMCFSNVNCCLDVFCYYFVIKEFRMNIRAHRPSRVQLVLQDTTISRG", "assay": "blockers of GPR55 signalling, imaged – imaging, image-based, counter-screen for GPR35 antagonist project, SAR follow-up (AID 2397)", "assay_type": "functional"}, "[13]": {"target": "T4, Tyrosine-protein phosphatase non-receptor type 22", "assay": "inhibition of lymphoid tyrosine phosphatase LYP – biochemical, pCAP fluorogenic substrate, fluorescence, set 3, SAR follow-up (AID 449727)", "assay_type": "functional"}, "[14]": {"target": "T3, G-protein coupled receptor 35", "assay": "SAR Analysis for the identification of Selective Antagonists of ERK1/2 Activity in GPR35-Overexpressing U2OS Cells. [Related pubchem assays: 2079, 2058 ]", "assay_type": "functional, cell-based"}, "[15]": {"target": "T5, Tyrosine-protein phosphatase non-receptor type 7 (Homo sapiens, UniProt P35236)", "T5 sequence (P35236 whole entry)": "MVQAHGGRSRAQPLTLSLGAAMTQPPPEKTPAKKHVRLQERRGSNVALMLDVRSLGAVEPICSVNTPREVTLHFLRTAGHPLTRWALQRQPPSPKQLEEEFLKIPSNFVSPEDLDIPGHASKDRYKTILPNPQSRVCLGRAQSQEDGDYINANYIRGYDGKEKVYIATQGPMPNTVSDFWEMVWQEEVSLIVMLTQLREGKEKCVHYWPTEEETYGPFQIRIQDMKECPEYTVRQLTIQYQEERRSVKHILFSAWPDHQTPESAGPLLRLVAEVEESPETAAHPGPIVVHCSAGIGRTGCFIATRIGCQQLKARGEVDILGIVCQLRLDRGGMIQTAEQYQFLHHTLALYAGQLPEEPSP", "assay": "inhibition of hematopoietic tyrosine phosphatase HePTP – biochemical, set 2, SAR follow-up (AID 449736)", "assay_type": "functional"}, "[16]": {"assay": "Luminescence Cell-Based Dose Response HTS to Identify Inhibitors of 5'UTR Stem-Loop Driven Prion Protein mRNA Translation in H4 Neuroglioblastoma Cells. [Related pubchem assays: 1827 (Project Summary), 1813 (Primary HTS)]", "assay_type": "functional"}, "[17]": {"assay": "alpha-synuclein stem-loop luciferase translation blockers – H4 neuroglioma cells, luminescence, confirmation (AID 1988)", "assay_type": "functional, cell-based"}, "[18]": {"target": "Lysine-specific demethylase 4A (Homo sapiens, UniProt O75164)", "sequence (O75164 whole entry)": "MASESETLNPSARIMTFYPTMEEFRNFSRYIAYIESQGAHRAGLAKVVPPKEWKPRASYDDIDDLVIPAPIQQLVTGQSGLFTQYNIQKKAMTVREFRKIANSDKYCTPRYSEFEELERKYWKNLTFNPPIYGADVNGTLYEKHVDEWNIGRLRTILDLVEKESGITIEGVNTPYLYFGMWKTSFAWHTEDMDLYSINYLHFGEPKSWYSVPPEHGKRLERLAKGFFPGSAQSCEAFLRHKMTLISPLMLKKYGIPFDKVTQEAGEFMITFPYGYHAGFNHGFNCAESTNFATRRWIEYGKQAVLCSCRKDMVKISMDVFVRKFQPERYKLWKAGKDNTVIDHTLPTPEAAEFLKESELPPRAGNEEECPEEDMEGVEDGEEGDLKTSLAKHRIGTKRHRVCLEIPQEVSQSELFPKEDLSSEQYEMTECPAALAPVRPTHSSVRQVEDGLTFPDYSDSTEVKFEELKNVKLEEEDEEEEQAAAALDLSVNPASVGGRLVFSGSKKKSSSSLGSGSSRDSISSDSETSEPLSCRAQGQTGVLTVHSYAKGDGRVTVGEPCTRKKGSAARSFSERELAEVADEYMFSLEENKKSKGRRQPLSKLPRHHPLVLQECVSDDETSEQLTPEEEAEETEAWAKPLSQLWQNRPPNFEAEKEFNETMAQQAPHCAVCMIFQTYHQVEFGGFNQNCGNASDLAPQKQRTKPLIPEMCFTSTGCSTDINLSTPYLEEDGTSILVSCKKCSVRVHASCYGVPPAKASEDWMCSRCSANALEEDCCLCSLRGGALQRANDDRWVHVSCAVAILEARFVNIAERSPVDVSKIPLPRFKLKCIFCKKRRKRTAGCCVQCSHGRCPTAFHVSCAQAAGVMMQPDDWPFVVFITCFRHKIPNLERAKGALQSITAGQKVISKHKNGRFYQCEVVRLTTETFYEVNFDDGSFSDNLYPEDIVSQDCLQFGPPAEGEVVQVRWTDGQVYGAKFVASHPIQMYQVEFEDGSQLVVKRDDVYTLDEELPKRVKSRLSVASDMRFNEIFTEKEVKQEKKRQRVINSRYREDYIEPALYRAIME", "assay": "inhibition of JMJD2A H3K9me3 demethylation – biochemical, DELFIA europium, cherry-picked samples, selectivity assay for GASC-1 inhibitor project, dose response (AID 488840)"}, "[19]": {"target": "Ras and Rab interactor 1/Tyrosine-protein kinase ABL1 (Homo sapiens, UniProt P00519+Q13671)", "sequence (P00519 whole entry)": "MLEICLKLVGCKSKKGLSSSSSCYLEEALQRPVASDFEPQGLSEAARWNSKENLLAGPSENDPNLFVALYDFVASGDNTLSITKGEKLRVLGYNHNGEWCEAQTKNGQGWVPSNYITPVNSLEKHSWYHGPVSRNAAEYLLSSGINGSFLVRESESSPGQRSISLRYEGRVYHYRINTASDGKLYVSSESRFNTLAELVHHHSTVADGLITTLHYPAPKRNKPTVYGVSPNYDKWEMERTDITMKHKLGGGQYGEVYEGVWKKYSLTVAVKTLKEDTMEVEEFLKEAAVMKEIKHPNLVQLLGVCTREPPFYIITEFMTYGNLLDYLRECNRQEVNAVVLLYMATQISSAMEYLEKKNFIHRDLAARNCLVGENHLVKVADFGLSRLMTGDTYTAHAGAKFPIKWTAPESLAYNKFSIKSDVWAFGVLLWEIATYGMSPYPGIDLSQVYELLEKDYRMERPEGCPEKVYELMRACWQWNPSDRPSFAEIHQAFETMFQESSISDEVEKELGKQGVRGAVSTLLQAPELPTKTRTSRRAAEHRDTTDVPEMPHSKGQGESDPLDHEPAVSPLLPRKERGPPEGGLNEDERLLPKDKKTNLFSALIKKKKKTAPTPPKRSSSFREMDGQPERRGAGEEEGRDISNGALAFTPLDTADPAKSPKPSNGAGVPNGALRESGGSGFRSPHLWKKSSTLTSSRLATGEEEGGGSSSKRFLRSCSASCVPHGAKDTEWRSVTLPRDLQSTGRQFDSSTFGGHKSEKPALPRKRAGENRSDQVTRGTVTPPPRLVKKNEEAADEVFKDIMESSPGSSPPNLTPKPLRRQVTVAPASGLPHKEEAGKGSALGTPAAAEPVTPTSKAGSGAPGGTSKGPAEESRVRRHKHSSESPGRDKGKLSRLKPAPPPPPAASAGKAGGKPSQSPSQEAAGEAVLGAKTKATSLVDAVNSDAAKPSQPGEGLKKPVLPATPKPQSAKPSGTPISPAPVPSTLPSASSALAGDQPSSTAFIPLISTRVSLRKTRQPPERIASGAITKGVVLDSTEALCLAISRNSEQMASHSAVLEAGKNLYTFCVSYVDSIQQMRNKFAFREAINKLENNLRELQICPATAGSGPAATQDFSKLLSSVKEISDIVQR", "sequence (Q13671 whole entry)": "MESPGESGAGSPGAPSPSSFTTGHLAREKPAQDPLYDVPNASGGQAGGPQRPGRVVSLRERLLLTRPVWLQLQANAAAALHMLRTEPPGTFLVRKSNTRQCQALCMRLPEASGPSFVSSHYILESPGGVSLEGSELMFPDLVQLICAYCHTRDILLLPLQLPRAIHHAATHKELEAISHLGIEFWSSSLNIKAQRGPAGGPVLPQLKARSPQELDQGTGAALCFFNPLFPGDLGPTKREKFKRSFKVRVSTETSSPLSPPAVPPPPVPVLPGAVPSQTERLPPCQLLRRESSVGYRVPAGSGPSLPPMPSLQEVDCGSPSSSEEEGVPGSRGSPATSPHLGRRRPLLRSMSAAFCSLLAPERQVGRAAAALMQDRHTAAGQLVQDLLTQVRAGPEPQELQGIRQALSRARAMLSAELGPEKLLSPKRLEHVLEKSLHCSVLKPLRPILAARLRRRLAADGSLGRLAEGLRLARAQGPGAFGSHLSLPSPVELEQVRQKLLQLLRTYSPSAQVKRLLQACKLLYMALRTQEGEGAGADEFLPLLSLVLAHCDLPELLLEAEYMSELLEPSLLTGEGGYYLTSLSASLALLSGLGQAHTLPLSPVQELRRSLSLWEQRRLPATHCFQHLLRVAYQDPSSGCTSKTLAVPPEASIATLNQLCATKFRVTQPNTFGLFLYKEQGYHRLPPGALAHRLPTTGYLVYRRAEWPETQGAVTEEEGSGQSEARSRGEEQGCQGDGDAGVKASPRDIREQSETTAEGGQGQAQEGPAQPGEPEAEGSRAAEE", "assay_type": "functional"}}, "note": "The source made the active and inactive calls.", "data": [{"compound": "Cc1ccc(-[n+]2c(-c3ccc(Br)cc3)cn3c2CCc2ccc4cccnc4c2-3)cc1", "values": [{"measurement": "EC50", "setting": "Streptokinase A", "value": "6.5 µM (active)"}, {"measurement": "AC50", "setting": "Cytochrome P450 3A4", "value": "4.47 µM (inconclusive)"}, {"measurement": "AC50", "setting": "INS1", "value": "0.412 µM (active)"}, {"measurement": "EC50", "setting": "BJ [1]", "value": "1.69 µM (inconclusive)"}, {"measurement": "EC50", "setting": "BJ [2]", "value": "2.98 µM (inconclusive)"}, {"measurement": "EC50", "setting": "[3]", "value": "3.51 µM (active)"}, {"measurement": "AC50", "setting": "Cytochrome P450 2C19", "value": "28.2 µM (inconclusive)"}, {"measurement": "AC50", "setting": "Cytochrome P450 1A2", "value": "25.1 µM (inconclusive)"}, {"measurement": "IC50", "setting": "[4]", "value": "16.9 µM (inactive)"}, {"measurement": "IC50", "setting": "[5]", "value": "4.28 µM (active)"}, {"measurement": "EC50", "setting": "[6]", "value": "6.51 µM (active)"}, {"measurement": "EC50", "setting": "BJ [7]", "value": "0.649 µM (inconclusive)"}, {"measurement": "IC50", "setting": "Exodeoxyribonuclease V", "value": "28.4 µM (inactive)"}, {"measurement": "IC50", "setting": "Bcl-2-like protein 10", "value": "41.4 µM (active)"}, {"measurement": "EC50", "setting": "Streptococcus", "value": "> 50 µM (not active)"}]}, {"compound": "O=C(CCCN1C(=O)/C(=C/c2ccc3c(c2)OCO3)SC1=S)Nc1cccc(C(=O)O)c1", "values": [{"measurement": "IC50", "setting": "[8]", "value": "37.4 µM (active)"}, {"measurement": "IC50", "setting": "[9]", "value": "0.803 µM (active)"}, {"measurement": "EC50", "setting": "[10]", "value": "10.2 µM (active)"}, {"measurement": "IC50", "setting": "[11]", "value": "> 100 µM (inactive)"}, {"measurement": "IC50", "setting": "[12]", "value": "> 32 µM (inactive)"}, {"measurement": "IC50", "setting": "[13]", "value": "62.7 µM (active)"}, {"measurement": "IC50", "setting": "[14]", "value": "1.89 µM (active)"}, {"measurement": "IC50", "setting": "[15]", "value": "2.47 µM (active)"}, {"measurement": "EC50", "setting": "[16]", "value": "17.5 µM (active)"}, {"measurement": "EC50", "setting": "[17]", "value": "> 120 µM (not active)"}]}, {"compound": "CN(C(=O)c1ccc(NC(=O)Cc2ccc(NC(=O)C3CCN(C(=O)C4CC4)CC3)cc2)cc1)C1CC1", "values": [{"measurement": "AC50", "setting": "[18]", "value": "17.8 µM (active)"}, {"measurement": "IC50", "setting": "[19]", "value": "9.39 µM (active)"}]}]}
